Molecules are shown by their SMILES. Read-outs that look alike come from different tables or passages of the source.

We go through two compounds from publication PMC5532363, “Synergistic blending of high-valued heterocycles inhibits growth of Plasmodium falciparum in culture and P. berghei infection in mouse model” (Scientific Reports, 2017).

For assay [1], the system named is P. falciparum 3D7 (Pf3D7), CQ sensitive. Briefly: SYBR Green I growth inhibition assay, asynchronous P. falciparum 3D7 culture. The format is cell-based, Plasmodium falciparum. Conditions: SYBR Green, mean of three experiments, NDR / No IC50 = no dose response. The text has this:
Antimalarial activity of all the listed Pht analogues was initially assessed on asynchronous cultures of P. falciparum 3D7 (Pf3D7) clone using the SYBR Green assay. […] The mean IC50 values are based on three separate experiments (Table 1).
The laboratory-adapted P. falciparum strains 3D7 (Africa; CQ sensitive) and W2 (Africa; CQ resistant), were acquired from Malaria Research and Reference Reagent Resource Center (MR4) (Manassas, VA, USA) and maintained with type O +ve erythrocytes suspended in continuous complete culture medium as described. Complete culture media consisted of 10.43 g/litre of RPMI 1640-HEPES supplemented with 10% (vol/vol) human AB serum, 92.6 mg/litre L-glutamine, 50 mg/liter hypoxanthine, 2 g/litre sodium bicarbonate (Sigma-Aldrich, St. Louis, MO). Incubation of cultures was at 37 °C and maintained in a low oxygen atmosphere (5% O2, 5% CO2, 90% N). The levels of parasitemia in the cultures were maintained at between 2 and 10%, with 5% hematocrit. Media was changed after every 24 hours and parasitemia monitored every 48 hours. Synchronous cultures were prepared by sorbitol lysis. Stock solutions of the Pht, Pht analogues, and DHA were prepared in absolute dimethyl sulfoxide (DMSO) while CQ was prepared in distilled water. The prepared drug stock solutions were used immediately or stored at −80 °C for not longer than one month before use. Stock solutions were further diluted in serum free RPMI 1640 media (stock solution solvent final conc. 0.05%) before performing a 2-fold serial dilution to achieve dose ranges of 0.2 µM to 100 µM (Pht and derivatives), 7.8 to 2,000 nM (CQ) and 0.17 to 87.5 nM (DHA). 25 μL of the drug diluents were aliquoted into 96 well plates and used immediately. Alternatively, the stock solutions were diluted in distilled water, 2-fold serial dilution performed on a 96 well plate and allowed to air dry in a laminar flow hood after which dried plates were stored at 4 °C until use. SYBR Green I assay technique with additional modification was used for drug susceptibility testing of the parasites. Parasite cultures of >1% parasitemia were diluted to 1% parasitemia and 2% hematocrit and 200 μL were transferred onto drug pre-dosed plates and incubated at 37 °C for 90 hours, [40]. Drug exposure was terminated by freezing the drug plates at −80 °C for 24 hours after which lysis buffer containing (per liter) 100 mM Tris-HCl, 10 mM EDTA, 0.016% Saponin, 1.6% triton X-100 and 20X SYBR Green I dye was added and the sample incubated for 2 hours in the dark. Relative fluorescence units (RFU) were read using the Perkin Elmer Wallac 1420 fluorescence plate reader, with excitation and emission wavelengths of 485 nm and 535 nm respectively. The readouts values were aligned with corresponding drug doses and analysis performed by Graph-pad Prism software. The drug concentrations (x value) were transformed using X = Log[X] and plotted against the counts (y values) and the data analysed by non-linear regression (sigmoid dose-response/variable slope equation) to yield the IC50.

Another assay deals with P. berghei NK65. Briefly: Modified Peter's 4-day suppressive test in P. berghei NK65 infected Swiss albino mice. The conditions noted are these: for effect on parasite load / effect on survival: 50 mg/kg s.c. for four consecutive days (artemisinin 5 mg/kg in combination), vs untreated; for median survival time (MST): 6h/6u 50 mg/kg, artemisinin 5 mg/kg, s.c. for four consecutive days, n = 6/group. The format is in vivo, Plasmodium berghei. How it is done: The antimalarial effect of two active analogues, 6h and 6u (administered at 50 mg/kg of body weight), was determined in mice infected with P. berghei NK65, a strain, which results in high levels of blood-stage parasitemia. […] However, the 6u analogue had better antimalarial efficacy than the 6h analogue (Fig. 6A). As such, we then evaluated the efficacy of 6u (50 mg/kg) in combination with artemisinin (5 mg/kg of body weight) at reduced dosage in the murine malaria model. […] The median survival times of animals treated with Pht 6u alone, as well in combination with ART were 23 and 27.5 days, respectively (P<0.001).
Figure 6 Antimalarial effect of Pht analogs (6h and 6u) alone and in combination with Artemisinin (6u and ART) on parasitemia and survival in mice infected with P. berghei NK65. Mice were injected with 1 × 10^7 P. berghei infected RBCs. After 48 hours mice were treated with control (PBS: untreated), 6h and 6u (alone), and 6u in combination with artemisinin (all injected subcutaneously) for four consecutive days. The % of parasitemia was determined for the groups on days 5, 8 and 15 by randomly selecting 10 different optical fields on blood smears. (A) Administration of 6h and 6u (alone), and 6 u in combination with ART. Data are the mean ± SEM from six animals per treatment group. (B) Survival in the treatment groups (n = 6/group). (C) Photomicrograph of blood smears of untreated versus treatment groups at day 15 post infection (100x magnification). ART, Artemisinin; *P < 0.05. TEXT PRINTED IN THE PICTURE: (B) Phthalimide 6h: MST- 19.5 | (B) Phthalimide 6u: MST- 23 | (B) Artemisinin: MST- 21.5 | (B) Phthalimide 6u+Artemisinin: MST- 27.5
All animal experiments were performed in female Swiss albino mice (4 to 5 weeks old, weighing 25 to 30 g). The animals were housed under standard controlled conditions at 25 °C with a 12-h light-dark cycle and access to sterilized food pellets and water. All experiments were carried out in accordance with the standard procedures approved by the Animal Ethics Committee of the University of Delhi South Campus, under the Control and Supervision of Experiments on Animals (CPCSEA), Ministry of Social Justice and Empowerment, Government of India. […] The antimalarial activity was carried out in accordance with a slightly modified version of the Peter’s 4-day suppressive test[43]. The animals were assigned to each group (n = 6). Subsequently, after 48 hour of postinfection, the parasitemia level reached 1 to 2%, and all the groups of mice were treated by subcutaneous (s.c.) injection with compounds 6h and 6u alone as well in combination with artemisinin solubilized in DMSO. One group was kept as a control and treated with physiological saline. The efficacy of the treatment was monitored by measuring the parasitemia and survival on days 5, 8 and 15 posttreatments by obtaining thin smears of blood withdrawn from the tail vein of infected mice and staining with 10% Giemsa. The level of parasitemia was determined by counting infected and noninfected erythrocytes from 10 to 15 randomly selected optical fields at 100x magnification and expressed as the number of infected erythrocytes per 100 erythrocytes. The survival of mice was recorded and observed for external symptoms, such as change in body weight, ruffled fur, lethargy and paralysis, until 30 or 40 days posttreatment. The reduction in the level of parasitemia was taken as the index for the curative activities of the drugs. The percentage of parasitemia was calculated manually with the Cell Counting Aid software[44] using the formula (total no. of parasitized RBCs)/(total no. of RBCs) × 100.
For in-vivo experiments, statistical differences between two groups were determined by Student’s t test and between multiple groups using one-way analysis of variance (ANOVA), with P values of <0.05, by GraphPad Prism (version 5.01; GraphPad Software, Inc., CA). […]

The mark [2] stands for this setting: Pf3D7, asynchronous culture, read-out: IC50 (SE) µM.
Setting [3] is: Plasmodium falciparum, 3D7, Pf3D7, asynchronous culture, read-out: IC50 (SE) µg/mL.

Regarding `CC[C@@H](C)[C@H](c1nc2ccccc2n1Cc1cn(-c2ccc(F)cc2)nn1)N1C(=O)c2ccccc2C1=O` [Compound 6h], the IC50 in assay [1] (Pf3D7, asynchronous culture, listed as 6 h, read-out: IC50 (SE) µM) is under 5.14 µM; in assay [1] (setting [2]), 0.9 µM; in assay [1] (setting [3]) it was 0.7 µg/mL. Further, the “effect on parasite load” value in the assay on P. berghei NK65 is on record as “suppression of the parasite load”. In the assay on P. berghei NK65, the effect on survival result is reported as “improved survival”. Moreover, in the assay with P. berghei NK65, the “median survival time (MST)” value was 19.5 days.
In the case of `CC(C)C[C@H](c1nc2ccccc2n1Cc1c[nH]nn1)N1C(=O)c2ccccc2C1=O` [Compound 6u], the IC50 was under 5.14 µM in assay [1] (Pf3D7, asynchronous culture, listed as 6 u, read-out: IC50 (SE) µM); 0.7 µM in assay [1] (setting [2]); 0.3 µg/mL in assay [1] (setting [3]). The “effect on parasite load” value with P. berghei NK65 was “suppression of the parasite load”. Moreover, the effect on survival result in the assay with P. berghei NK65 is “improved survival”. For the same compound, the “median survival time (MST)” value in the assay on P. berghei NK65 was 23 days.
